Measurements taken from ChEMBL document CHEMBL6083232, “A review on synthetic inhibitors of dual-specific tyrosine phosphorylation-regulated kinase 1A (DYRK1A) for the treatment of Alzheimer's disease (AD)” (Bioorg Med Chem, 2024).

Target: T1, Dual specificity tyrosine-phosphorylation-regulated kinase 1A (Homo sapiens, UniProt Q13627)
Assay: Inhibition of DYRK1A (unknown origin) extracted from Escherichia coli BL21 (DE3) cells measured for 60 mins by FRET assay

Row | IC50 [nM] | SMILES
1 | 150 | CN(Cc1ccco1)c1ncnc2ccc(-c3ccc4c(c3)OCO4)cc12
2 | 84 | O=C1NC(Nc2ccc(O)cc2)=N/C1=C\c1ccc2c(c1)OCO2
3 | 900 | Oc1ccc(-c2cnc3cnc(-c4ccc(O)cc4)nc3c2)cc1
4 | 20 | CCCC#Cc1ccnc2[nH]cc(-c3ccnc(N)n3)c12

Target: T1, Dual specificity tyrosine-phosphorylation-regulated kinase 1A
Assay: Inhibition of human recombinant 6xHis-tagged DYRK1A catalytic domain (1 to 502 residues) extracted from Escherichia coli BL21 (DE3) cells incubated for 30 mins by Bradford's reagent based analysis

Row | IC50 [nM] | SMILES
5 | 460 | COc1ccc(-c2c[nH]c3ncc(-c4ccc(OC)c(OC)c4)cc23)cc1
6 | 57800 | COc1ccc(-c2cnc3[nH]cc(-c4ccc(OC)c(OC)c4)c3c2)cc1OC
7 | 12 | Oc1ccc(-c2cnc3[nH]cc(-c4ccc(O)c(O)c4)c3c2)cc1O
8 | 56600 | Oc1ccc(-c2cnc3[nH]cc(-c4ccc(F)c(F)c4)c3c2)cc1O
9 | 5260 | COc1ccc(-c2cnc3[nH]cc(-c4ccc(F)c(F)c4)c3c2)cc1OC
10 | 18500 | COc1ccc(-c2c[nH]c3ncc(-c4ccc(OCc5ccccc5)c(OCc5ccccc5)c4)cc23)cc1OC
11 | 470 | COc1ccc(-c2c[nH]c3ncc(-c4ccc(O)c(O)c4)cc23)cc1OC
12 | 1430 | COc1ccc(-c2cnc3[nH]cc(-c4ccc(F)cc4)c3c2)cc1OC

Target: T2, Dual specificity tyrosine-phosphorylation-regulated kinase 4 (Homo sapiens, UniProt Q9NR20)
T2 sequence (Q9NR20 whole entry): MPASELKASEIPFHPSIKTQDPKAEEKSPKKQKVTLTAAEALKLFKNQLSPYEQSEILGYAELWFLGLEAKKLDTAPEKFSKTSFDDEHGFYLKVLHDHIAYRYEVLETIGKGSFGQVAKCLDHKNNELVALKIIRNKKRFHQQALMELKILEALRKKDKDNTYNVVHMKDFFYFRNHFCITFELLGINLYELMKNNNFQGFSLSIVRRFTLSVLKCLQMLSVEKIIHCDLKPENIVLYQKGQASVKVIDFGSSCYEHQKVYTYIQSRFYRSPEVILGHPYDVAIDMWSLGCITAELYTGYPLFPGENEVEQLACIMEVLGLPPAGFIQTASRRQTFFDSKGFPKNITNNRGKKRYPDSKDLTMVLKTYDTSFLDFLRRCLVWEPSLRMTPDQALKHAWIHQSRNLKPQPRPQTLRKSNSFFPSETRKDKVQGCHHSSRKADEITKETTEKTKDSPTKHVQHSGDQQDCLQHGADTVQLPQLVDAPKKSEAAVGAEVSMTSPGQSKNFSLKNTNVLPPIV
Assay: Inhibition of DYRK4 (unknown origin)

Row | SMILES | IC50 [nM]
13 | COc1ccc2cc3c4c(cc(OC)c(OC)c4c2c1)C(=O)N3 [ARISTOLACTAM BIII] | 1180

Target: T1, Dual specificity tyrosine-phosphorylation-regulated kinase 1A
Assay: Inhibition of DYRK1A (unknown origin) by FRET assay

Row | SMILES | IC50 [nM]
14 | COc1ccc2c(c1)[nH]c1c3c(OC)cncc3cc(C#N)c21 | 180
15 | CC(=O)Nc1nc2cc(O)ccc2s1 | 400
16 | CCN1/C(=C/C(C)=O)Sc2cc3oc4ccccc4c3cc21 | 20
17 | Cc1nc(Nc2ccccc2)c2c(-c3cc(N)nc(N)c3)c[nH]c2n1 | 2

Now from value to molecule:

Row | IC50 [nM] | SMILES
18 | 1 | Cc1ccc(NC(=O)c2n[nH]c3ccc(-c4cncc(CN5CCCCC5)c4)cc23)cn1
19 | 6 | Cc1c(O)cccc1-c1ccc2nc(NC(=O)C3CC3F)sc2c1 (stereo not given)
20 | 2 | Cc1nc2ccc(-c3cc(N)nc(N)c3)nc2n1-c1ccccc1

Target: Dual specificity tyrosine-phosphorylation-regulated kinase 1B (Homo sapiens, UniProt Q9Y463)
Assay: Inhibition of DYRK1B (unknown origin) by DiscoverX KINOMEscan assay

Dual specificity tyrosine-phosphorylation-regulated kinase 1B, sequence (Q9Y463 whole entry): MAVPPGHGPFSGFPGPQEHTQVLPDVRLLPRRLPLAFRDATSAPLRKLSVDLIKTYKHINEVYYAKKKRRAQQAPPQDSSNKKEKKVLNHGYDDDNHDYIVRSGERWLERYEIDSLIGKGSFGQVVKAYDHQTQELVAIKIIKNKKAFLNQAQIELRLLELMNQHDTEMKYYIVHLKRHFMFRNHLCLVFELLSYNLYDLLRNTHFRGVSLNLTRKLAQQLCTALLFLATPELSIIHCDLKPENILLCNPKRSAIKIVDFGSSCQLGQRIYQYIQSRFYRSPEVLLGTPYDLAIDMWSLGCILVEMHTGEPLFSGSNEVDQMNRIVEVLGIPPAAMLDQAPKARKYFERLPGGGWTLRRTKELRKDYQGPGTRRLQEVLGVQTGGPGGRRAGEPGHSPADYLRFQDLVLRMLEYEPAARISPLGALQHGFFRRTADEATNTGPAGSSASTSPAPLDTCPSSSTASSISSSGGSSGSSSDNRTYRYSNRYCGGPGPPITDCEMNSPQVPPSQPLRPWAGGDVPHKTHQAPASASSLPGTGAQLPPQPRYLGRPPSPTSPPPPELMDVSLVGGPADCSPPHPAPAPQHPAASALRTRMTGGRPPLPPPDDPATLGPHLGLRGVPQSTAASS

Row | IC50 [nM] | SMILES
21 | 56.6 | O=C(Nc1ccc(C(=O)NCc2ccccc2)cc1)Nc1nc2ccc(O)cc2s1

Target: T1, Dual specificity tyrosine-phosphorylation-regulated kinase 1A
Assay: Inhibition of DYRK1A (unknown origin)

Row | SMILES | IC50 [nM]
22 | CC(C)Nc1cncc(-c2ccc3cnc(NC(=O)C4CCN(C)CC4)cc3c2)n1 | 1
23 | CC(C)N1CCC(n2cc(C(=O)Nc3cc4cc(-c5cnn(C)c5)ccc4cn3)cn2)CC1 | 1
24 | Cc1nc2ccc(-c3ccnc(N)c3)nc2n1-c1ccc(N2CCN(CCOCCOCCC(=O)N3CCN(Cc4ccc(CNc5cccc6c5C(=O)N(C5CCC(=O)NC5=O)C6)cc4)CC3)CC2)c(F)c1 (stereo not given) | < 10000
25 | COCCn1nc2c(c1C#N)-c1cnc3[nH]cc(c3c1)-c1cn(nc1C(F)(F)F)CCCC(=O)N(C)C2 | < 50
26 | COc1nc(NC2CCN(C(C)=O)CC2F)nn2ccc(-c3ccc4nnn(CC(F)F)c4c3)c12 (stereo not given) | 1
27 | Cn1cc(C(=O)Nc2ncc(-c3ccc(C#N)cc3)s2)ccc1=O | < 10
28 | COCC(CC(C)C)NC1=N/C(=C\c2ccc3ncsc3c2)C(=O)N1C (stereo not given) | < 5
29 | O=C(NC1=Cc2ccc(O)cc2C1)Nc1ccc(NC(=O)c2ccc(O)cc2)cc1 | 7.8

Now from value to molecule:

Row | IC50 [nM] | SMILES
30 | 1 | O=c1[nH]c2ccc(-c3cncc(NCc4ccccc4)n3)cc2[nH]1
31 | < 100 | CN1CCN(c2ccc(-c3ncnc4ccc(-c5ccnc(N)c5)cc34)cc2F)CC1

Target: Cyclin-dependent kinase 1 (Homo sapiens, UniProt P06493)
Assay: Inhibition of CDK1 (unknown origin)

Cyclin-dependent kinase 1, sequence (P06493 whole entry): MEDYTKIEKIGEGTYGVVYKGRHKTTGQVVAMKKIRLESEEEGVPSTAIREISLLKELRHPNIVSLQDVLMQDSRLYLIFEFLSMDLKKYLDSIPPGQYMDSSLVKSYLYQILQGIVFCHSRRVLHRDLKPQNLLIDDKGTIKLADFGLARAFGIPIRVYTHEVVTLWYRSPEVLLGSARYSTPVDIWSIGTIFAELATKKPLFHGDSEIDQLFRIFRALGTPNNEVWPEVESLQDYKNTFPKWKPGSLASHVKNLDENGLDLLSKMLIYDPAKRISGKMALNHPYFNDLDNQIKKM

Row | SMILES | IC50 [nM]
32 | COc1ccc2cc3c4c(cc(OC)c(OC)c4c2c1)C(=O)N3 [ARISTOLACTAM BIII] | 405

Target: T1, Dual specificity tyrosine-phosphorylation-regulated kinase 1A
Assay: Inhibition of human DYRK1A in presence of ATP by Kinomescan method

Row | IC50 [nM] | SMILES
33 | 9000 | CCn1c2cc(OC)ccc2c2ccnc(C)c21
34 | 3 | COC(=N)c1nc2ccc3ncnc(Nc4ccc(F)cc4Br)c3c2s1
35 | 6 | NC1CCC(Nc2ncc3c(-c4ccnc(NCc5ccccc5)n4)n[nH]c3n2)CC1 (stereo not given)
36 | 4.6 | NCC(Nc1nccc(-c2n[nH]c3nc(NC4CCC(N)CC4)ncc23)n1)c1cccc(Cl)c1 (stereo not given)
37 | 14 | NC1CCC(Nc2ncc3c(-c4ccnc(NCc5ccsc5)n4)n[nH]c3n2)CC1 (stereo not given)
38 | 16 | COc1cc2[nH]c(=O)c(C(=O)Nc3cc(C(=O)NCc4cccc(Cl)c4)ccc3C)cc2cc1OCCN1CCOCC1

System: not listed separately
Assay: Half life in human
Assay type: ADME

Row | half-life [h] | SMILES
39 | > 1 | CN1CCN(C(=O)c2ccc(NC(=O)Nc3nc4ccc(O)cc4s3)cc2)CC1

Target: Dual specificity protein kinase CLK1 (Homo sapiens, UniProt P49759)
Assay: Inhibition of CLK1 (unknown origin)

Dual specificity protein kinase CLK1, sequence (P49759 whole entry): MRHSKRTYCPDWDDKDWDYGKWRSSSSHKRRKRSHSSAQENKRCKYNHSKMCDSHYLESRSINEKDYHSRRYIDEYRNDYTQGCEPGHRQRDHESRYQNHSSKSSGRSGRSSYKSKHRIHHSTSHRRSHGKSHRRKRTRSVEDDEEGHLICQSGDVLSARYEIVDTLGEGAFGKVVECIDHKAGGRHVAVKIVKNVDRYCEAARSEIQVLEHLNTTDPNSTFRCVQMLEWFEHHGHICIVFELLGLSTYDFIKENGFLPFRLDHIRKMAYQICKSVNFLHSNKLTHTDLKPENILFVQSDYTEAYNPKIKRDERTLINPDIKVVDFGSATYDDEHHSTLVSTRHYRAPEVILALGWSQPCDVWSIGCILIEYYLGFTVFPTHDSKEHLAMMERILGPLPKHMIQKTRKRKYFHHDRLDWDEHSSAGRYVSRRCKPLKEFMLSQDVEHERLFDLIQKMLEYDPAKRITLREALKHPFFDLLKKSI

Row | SMILES | IC50 [nM]
40 | COc1ccc2cc3c4c(cc(OC)c(OC)c4c2c1)C(=O)N3 [ARISTOLACTAM BIII] | 50.3
